Reference: patent US20200031920A1, “Combination Therapy for Treating Cancer” (The George Washington University, priority 2017, published 2020)

Columns and labels:
IL-11 = IL-11 secretion by ELISA in cell culture medium; format: cell-based, human; conditions: 24 hr
Experimental: (§1) FIG. 69 are bar graphs ((A)-(C) and (E)-(F)) and illustrations ((D) and (G)) showing that reactive oxygen species (ROS) induces IL-11 expression. (A) is a bar graph showing quantification of ROS production in SKOV3 and SKOV3 CR cells. Data are represented as means±SD from three independent experiments. **p<0.01. Scale bar, 100 μm. (B) is a bar graph showing quantification of ROS production in SKOV3 CR cells after treatment with the ROS inhibitor YCG063 at 20 μM for 24 hr. Data are represented as means±SD from three independent experiments. ***p<0.001. (C) is a bar graph showing IL-11 levels measured by ELISA in the medium of SKOV3 CR cells treated with YCG063 at 20 μM for 24 hr. Data are represented as mean±SD from three independent experiments performed in triplicate. ***p<0.001. (D) is an illustration showing an immunoblot of phosphorylated JAK2 and STAT5 in SKOV3 CR cells treated with YCG063 (20 μM) for 24 hr. (E) is a bar graph showing quantification of ROS production in SKOV3 cells after treated with the ROS inhibitor YCG063 (20 μM), cisplatin (1 μM), or both for 24 hr. Data are represented as means±SD from three independent experiments. **p<0.01, ***p<0.001, n.s. means not significant by one-way ANOVA. (F) is a bar graph showing IL-11 levels measured by ELISA in SKOV3 cells treated with YCG063 (20 μM), cisplatin (1 μM) or both for 24 hr. Data are represented as mean±SD from three independent experiments performed in triplicate. ***p<0.001 by one-way ANOVA. (G) is an illustration showing an immunoblot of phosphorylated JAK2 and STAT5 in SKOV3 CR cells treated with YCG063 (20 μM), cisplatin (1 μM) or both for 24 hr.
Next, the factor from medium that contributes to cisplatin resistance of SKOV3 CR cells was investigated. […] The cell-free culture medium, mouse serum, and patient serum were analyzed for IL-11 levels using a human IL-11 ELISA kit (R&D Systems) according to the manufacturer's instructions. The absorbance was read at 450 nm using a microplate reader (BioTek). The data were normalized to the cell number. […]

[1] = tested on: reactive oxygen species (ROS); experiment: ROS production (CellROX Orange reagent); format: cell-based; conditions: SKOV3 cells, YCG063 20 μM, cisplatin 1 μM, 24 hr
Experimental: as §1, with “(D) is an illustration showing an immunoblot of phosphorylated JAK2 and STAT5 in SKOV3 CR cells treated with YCG063 (20 μM) for 24 hr.” left out, “Data are represented as means±SD from three independent experiments. **p<0.01, ***p<0.001, n.s. means not significant by one-way ANOVA.” left out, “Data are represented as mean±SD from three independent experiments performed in triplicate. ***p<0.001 by one-way ANOVA. (G) is an illustration showing an immunoblot of phosphorylated JAK2 and STAT5 in SKOV3 CR cells treated with YCG063 (20 μM), cisplatin (1 μM) or both for 24 hr.” left out
DNA damage induces generation of reactive oxygen species (ROS). […] ROS was detected with a live cell-permeable, fluorophore CellROX Orange reagent (Thermo Fisher Scientific) according to the manufacturer's instructions. […] ROS intensity was analyzed using ImageJ (NIH) software. […]

[2] = tested on: phosphorylation of JAK2 (Y1007/1008) and STAT5 (Y694); experiment: western blot of JAK2/STAT5 signaling; format: cell-based
Experimental: FIG. 22 is an illustration showing that LY2784544 down-regulates JAK2/STAT5 signaling in SKOV3 CR cells. Cells were treated with the indicated concentrations of LY2784544 for 48 hr.
FIG. 23 is an illustration showing the immunoblotting for the indicated targets in SKOV3 CR cells treated with vehicle (DMSO), 3 μM LY2784544, 5 μM cisplatin, or the combination for 48 hr.
To investigate the molecular mechanism by which the JAK2-mediated pathway regulates cisplatin resistance of ovarian cancer, the activation of the JAK2-mediated pathway in paired sensitive cell line (SKOV3, IGROV1, PEO1) and resistant cell lines (SKOV3 CR, IGROV1 CR, PEO4) was examined by western blot. Compared to cisplatin sensitive cells SKOV3 or IGROV1, the JAK2 protein levels are not changed in cisplatin resistant cells SKOV3 CR, IGROV1 CR, or PEO4.
The effects of LY2784544 on the JAK2/STAT5 signaling pathway in both SKOV3 and SKOV3 CR cells were examined.

FRA1 = experiment: immunoblot of phosphorylated and total FRA1; format: cell-based; conditions: SKOV3 CR cells, 20 μM, 24 hr
Description: FIG. 70 are illustrations ((A), (B), and (D)) and a bar graph (C) showing that ROS induces IL-11 expression by promoting expression of FOSL1 (FRA1). (A) is an illustration showing total and phosphorylated levels of FRA1 in SKOV3 and SKOV3 CR cells. […] (C) is a bar graph showing IL-11 levels measured by ELISA in the medium of SKOV3 CR cells transfected with FOSL1 siRNA for 48 hr. Data are represented as mean±SD from three independent experiments performed in triplicate. ***p<0.001. (D) is an illustration showing an immunoblot of phosphorylated and total FRA1 protein in SKOV3 CR cells treated with YCG063 20 μM for 24 hr.
To achieve this goal, pathway analyses using PathwayNet were conducted, which identified a total of 20 transcription factors that likely regulate IL-11. […] It was next tested whether ROS is required for activation or expression of FRA1 by treating SKOV3 CR cells with YGC063.

SKOV3 CR cells [3] = experiment: cell viability / proliferation (SRB) assay, cisplatin resistant SKOV3 CR cells; format: cell-based; conditions: for medium CI (combination index): combination with cisplatin, CI<1 synergism; for sensitization of SKOV3 CR cells to cisplatin (proliferation): combination with cisplatin at different doses, FIG. 13: 0.4 μM LY2784544, five days
Experimental: (§2) FIG. 1 is a line graph showing the proliferation of SKOV3 parental and SKOV3 CR cells treated with increasing concentrations of cisplatin for five days. Data are represented as mean±SD from three independent experiments performed in triplicate. Indicated IC50 values represent the mean of two independent experiments performed in triplicate.
(§3) FIG. 13 is a line graph showing the proliferation of SKOV3 parental and SKOV3 CR cells treated with increasing concentrations of cisplatin and 0.4 μM LY2784544 for five days. Data are represented as mean±SD from three independent experiments performed in triplicate.
(§4) Cisplatin resistant ovarian cancer cell lines were generated using procedures as described previously. Jazaeri et al., Mol Cancer Ther 12: 1958-1967 (2013). Ovarian cancer cells SKOV3 were cultured in the medium with cisplatin (Sigma-Aldrich) for three weeks, followed by release to cisplatin-free medium for another three weeks. In the next cycle, the cisplatin treatment was repeated in the medium with an increased concentration of cisplatin. After six-cycle treatment, cells were identified that were able to grow in the medium with a high concentration of cisplatin. These cisplatin resistant cells were named as SKOV3 CR (FIG. 1).
(§5) The results obtained from combinational HTS were confirmed by testing whether LY2784544 overcomes cisplatin resistance in ovarian cancer cells using multiple assays. […] The Combination index (CI), which quantitatively describes the interaction between drugs including synergism (CI<1), additive effect (CI=1), and antagonism (CI>1), was calculated.

SKOV3 cells = experiment: cell viability / proliferation (SRB) assay, SKOV3 parental cells; format: cell-based
Experimental: as §2, §3, §4, §5

SKOV3 CR cells [4] = experiment: combinational high throughput screen with cisplatin; format: cell-based; conditions: in combination with DMSO, 1 μM cisplatin or 20 μM cisplatin
Description: A combinational HTS using multiple compound libraries including NPC (NIH Pharmaceutical Collection), MIPE (Mechanism interrogation plate), and LOPAC (The Library of Pharmacologically Active Compounds) was used to identify compounds that can overcome cisplatin resistance of SKOV3 CR cells (FIG. 5). The library of pharmacologically active compounds (LOPAC®) of 1280 compounds (1) was purchased from Sigma. The NCGC Pharmaceutical Collection (NPC) of 2816 compounds and mechanism interrogation plate (MIPE) library of 1920 compounds were previously described. Bromberg, J Clin Invest 109: 1139-1142 (2002) and Buchert et al., Oncogene 35: 939-951 (2016). Compounds from all libraries were obtained as powder and dissolved in dimethyl sulfoxide (DMSO) […]. Combinational HTS was performed as previously described. Szasz et al., Oncotarget 7: 49322-49333 (2016). A total of 6,016 compounds were screened. […] In the second screen, these 112 compounds were selected for a dose-response confirmation screen in combination with DMSO, 1 μM cisplatin or 20 μM cisplatin (FIG. 5).

## CCCCCOc1ccc(/C=N/NC(=O)CSc2c([N+](=O)[O-])ncn2C)cc1 [YCG063]
IL-11; SKOV3 CR cells, YCG063 20 μM
  IL-11 secretion: significantly reduced IL-11 secretion
IL-11; SKOV3 cells, YCG063 20 μM with cisplatin 1 μM
  cisplatin-induced IL-11 secretion: suppressed cisplatin-induced IL-11 secretion
[1]
  ROS production: suppressed ROS production in SKOV3 cells
[2]; SKOV3 CR cells, YCG063 20 μM, 24 hr
  phosphorylation of JAK2 and STAT5: significantly reduced
FRA1
  expression and phosphorylation of FRA1: reduced the expression of FRA1 as well as its phosphorylation

## Cc1cnc(Nc2ccc(OCCN3CCCC3)cc2)nc1Nc1cccc(S(=O)(=O)NC(C)(C)C)c1 [TG101348]
SKOV3 CR cells [3]; SKOV3 CR cells
  medium CI (combination index): 0.77

## N.N.O=C([O-])C1(C(=O)[O-])CCC1.[Pt+2] [carboplatin]
SKOV3 CR cells [3]; 5 days
  fold increase of IC50, SKOV3 CR compared to parental SKOV3: 4 fold
SKOV3 CR cells [3]; SKOV3 CR cells, 5 days
  IC50: 118 µM
SKOV3 cells; SKOV3 parental cells, 5 days
  IC50: 25.2 µM

## NS(=O)(=O)OC[C@@H]1C[C@@H](n2ccc3c(N[C@H]4CCc5ccccc54)ncnc32)C[C@@H]1O [MLN4924]
SKOV3 CR cells [4]
  sensitization to cisplatin in second (dose-response confirmation) screen: significantly sensitize SKOV3 CR cells to cisplatin
SKOV3 CR cells [3]
  sensitization of SKOV3 CR cells to cisplatin (proliferation): can sensitize SKOV3 CR cells to cisplatin

## C/C(=N\NC(=S)N1CCC1)c1ccccn1 [NSC319726]
SKOV3 CR cells [4]
  sensitization to cisplatin in second (dose-response confirmation) screen: significantly sensitize SKOV3 CR cells to cisplatin
SKOV3 CR cells [3]
  sensitization of SKOV3 CR cells to cisplatin (proliferation): can sensitize SKOV3 CR cells to cisplatin

## Cc1cnc(Nc2ccc(CN3CCOCC3)cc2)nc1Nc1cccc(S(=O)(=O)NC(C)(C)C)c1 [TG46]
SKOV3 CR cells [3]; SKOV3 CR cells
  medium CI (combination index): 0.77

B1: recombinant IL-11: recombinant human IL-11 (R&D Systems) (protein, UniProt P20809 22-199, looked up)
Interleukin-11: PGPPPGPPRVSPDPRAELDSTVLLTRSLLADTRQLAAQLRDKFPADGDHNLDSLPTLAMSAGALGALQLPGVLTRLRADLLSYLRHVQWLRRAGGSSLKTLEPELGTLQARLDRLLRRLQLLMSRLALPQPPPDPPAPPLAPPSSAWGGIRAAHAILGGLHLTLDWAVRGLLLLKTRL
SKOV3 cells; IL-11 for 4 hr then cisplatin 5 days
  resistance of SKOV3 cells to cisplatin (proliferation): significantly increased its resistance to cisplatin
[2]; SKOV3 parental cells, 10 ng/mL IL-11 for 4 hr
  phosphorylation of JAK2 and STAT5: did increase the phosphorylation of JAK2 (Y1007/1008) as well as phosphorylation of STAT5 (Y694)
